Earlier results as cited in patent publication US20220160693A1, “PHARMACEUTICAL COMPOSITION OF PROLYL HYDROXYLASE INHIBITOR AND PREPARATION METHOD THEREFOR” (Jiangsu Hengrui Medicine Co., Ltd., priority 2019, published 2022).

Test system: prolyl hydroxylase

Structure (SMILES): O=C(O)CNC(=O)c1ncc(C#CCOc2ccc(Cl)cc2)cc1O [compound of formula (I), 2-(3-hydroxy-5-(3-p-chlorophenoxypropyn-1-yl))picolinamido acetic acid]
- Inhibition effect on prolyl hydroxylase (in words): excellent inhibition effect
